In brackets after ≈: the same amount, converted by molar mass.
How the values were obtained:
[1] = tested on: S. aureus (46) clinical isolates; test: Susceptibility of clinical isolates (MIC); type: cell-based, Staphylococcus aureus; conditions: Staphylococcus aureus, S. aureus, 46 clinical isolates
Procedure: (§1) Susceptibility testing of oxazolidinone-fluoroquinolone hybrids against various bacteria was performed by the broth microdilution method as outlined by the Clinical and Laboratory Standards Institute (CLSI). Three types of media, including cation-adjusted Mueller Hinton broth, Haemophilus Test Medium and cation-adjusted Mueller Hinton broth that contained 3%–5% lysed horse blood, were used to culture the corresponding bacteria. […] A final inoculum of 5 × 10^5 CFU/mL was used and plates were read after incubation for 16–24 h at 35 °C. […] Standard quality control strains (ATCC) were included throughout. Each determination was repeated in triplicate.

[2] = tested on: H. parasuis (34) clinical isolates; test: Susceptibility of clinical isolates (MIC); type: cell-based, Haemophilus parasuis; conditions: for Cumulative % of strains inhibited at MIC / No. of strains inhibited at MIC: H. parasuis (34)
Procedure: as §1

[3] = tested on: S. epidermidis (10) clinical isolates; test: Susceptibility of clinical isolates (MIC); type: cell-based, Staphylococcus epidermidis; conditions: for Cumulative % of strains inhibited at MIC / No. of strains inhibited at MIC: S. epidermidis (10)
Procedure: as §1

[4] = tested on: LZD-resistant E. faecalis; test: microbe, parasite or virus in culture; type: cell-based; conditions: Enterococcus faecalis
Procedure: (§2) 6 standard strains and 3 clinical isolates were used to the preliminary evaluation of in vitro antibacterial activities of oxazolidinone-fluoroquinolone hybrids.
as §1

MRSE = test: MIC against drug-resistant strain; type: cell-based, S. epidermidis; conditions: Staphylococcus epidermidis, read-out: MIC
Procedure: as §2, §1

[5] = tested on: S. suis (9) clinical isolates; test: Susceptibility of clinical isolates (MIC); type: cell-based, Streptococcus suis; conditions: for Cumulative % of strains inhibited at MIC / No. of strains inhibited at MIC: S. suis (9)
Procedure: as §1

[6] = tested on: S. agalactiae^R (13B317), levofloxacin-resistant S. agalactiae; test: MIC, broth microdilution (CLSI), clinical isolate; type: cell-based; conditions: Streptococcus agalactiae; levofloxacin-resistant S. agalactiae (13B317)
Source text: 6 standard strains and 3 clinical isolates were used to the preliminary evaluation of in vitro antibacterial activities of oxazolidinone-fluoroquinolone hybrids. For the further evaluation of hybrids OBP-4 and OBP-5, 263 clinical isolates including S. aureus (46), S. haemolyticus(32), S. epidermidis (10), E. faecalis (72), E. faecium (47), S. pneumoniae (13), H. parasuis (34), S. suis (9), and 8 resistant strains including MRSA, MRSE, CIP-resistant S. aureus and S. haemolyticus, VAN and quinolone-resistant S. pneumoniae, LZD-resistant E. faecalis, LZD/VAN and quinolone-resistant E. faecium were collected and tested.
Susceptibility testing of oxazolidinone-fluoroquinolone hybrids against various bacteria was performed by the broth microdilution method as outlined by the Clinical and Laboratory Standards Institute (CLSI). Three types of media, including cation-adjusted Mueller Hinton broth, Haemophilus Test Medium and cation-adjusted Mueller Hinton broth that contained 3%–5% lysed horse blood, were used to culture the corresponding bacteria. All compounds including comparator drugs were dissolved in an appropriate solvent at a concentration of 2.048 mg/mL and then serially diluted two-fold to provide the required concentrations. A final inoculum of 5 × 10^5 CFU/mL was used and plates were read after incubation for 16–24 h at 35 °C. […] Standard quality control strains (ATCC) were included throughout. Each determination was repeated in triplicate.

## C[C@H]1CCc2c(N3CCC(O)(COc4ccc(N5C[C@H](CO)OC5=O)cc4F)CC3)c(F)cc3c(=O)c(C(=O)O)cn1c23 [OBP-4]
[1]; read-out: MIC50
  MIC50: ≤ 0.0625 µg/mL
[1]; read-out: MIC90
  MIC90: 0.125 µg/mL (≈ 0.208 µM)
[1]; read-out: MIC Range
  MIC: 0.0625 to 0.25 µg/mL (≈ 0.104 to 0.417 µM)
[2]; Glaesserella parasuis, H. parasuis, 34 clinical isolates, read-out: MIC50
  MIC50: 1 µg/mL (≈ 1.67 µM)
[2]; Glaesserella parasuis, H. parasuis, 34 clinical isolates, read-out: MIC90
  MIC90: 4 µg/mL (≈ 6.67 µM)
[2]; MIC 0.5 µg/mL
  Cumulative % of strains inhibited at MIC: 35.3%
  No. of strains inhibited at MIC: 5
[2]; MIC 1 µg/mL
  Cumulative % of strains inhibited at MIC: 61.8%
  No. of strains inhibited at MIC: 9
[2]; MIC 2 µg/mL
  Cumulative % of strains inhibited at MIC: 79.4%
  No. of strains inhibited at MIC: 6
[2]; MIC 4 µg/mL
  Cumulative % of strains inhibited at MIC: 100.0%
  No. of strains inhibited at MIC: 7
[2]; MIC […]
  Cumulative % of strains inhibited at MIC: 20.6%
  No. of strains inhibited at MIC: 3
[2]; MIC ≤[…]
  Cumulative % of strains inhibited at MIC: 11.8%
  No. of strains inhibited at MIC: 4
[2]; H. parasuis, 34 clinical isolates
  MIC Range: ≤0.0625 to 4 µg/mL
[3]; MIC 0.125 µg/mL
  Cumulative % of strains inhibited at MIC: 60.0%
  No. of strains inhibited at MIC: 4
[3]; MIC […]
  Cumulative % of strains inhibited at MIC: 100.0%
  No. of strains inhibited at MIC: 4
[3]; MIC ≤[…]
  Cumulative % of strains inhibited at MIC: 20.0%
  No. of strains inhibited at MIC: 2
[3]; Staphylococcus epidermidis, S. epidermidis, 10 clinical isolates, read-out: MIC50
  MIC50: 0.125 µg/mL (≈ 0.208 µM)
[3]; Staphylococcus epidermidis, S. epidermidis, 10 clinical isolates, read-out: MIC90
  MIC90: 0.25 µg/mL (≈ 0.417 µM)
[3]; Staphylococcus epidermidis, S. epidermidis, 10 clinical isolates, read-out: MIC Range
  MIC: 0.0625 to 0.25 µg/mL (≈ 0.104 to 0.417 µM)
[4]
  MIC: 1 µg/mL (≈ 1.67 µM)
MRSE
  MIC: ≤ 0.0625 µg/mL
[5]; MIC 0.125 µg/mL
  Cumulative % of strains inhibited at MIC: 77.8%
  No. of strains inhibited at MIC: 2
[5]; MIC 2 µg/mL
  Cumulative % of strains inhibited at MIC: 100%
  No. of strains inhibited at MIC: 1
[5]; MIC […]
  Cumulative % of strains inhibited at MIC: 88.9%
  No. of strains inhibited at MIC: 1
[5]; MIC ≤[…]
  Cumulative % of strains inhibited at MIC: 55.6%
  No. of strains inhibited at MIC: 5
[5]; Streptococcus suis, S. suis, 9 clinical isolates, read-out: MIC50
  MIC50: ≤ 0.0625 µg/mL
[5]; Streptococcus suis, S. suis, 9 clinical isolates, read-out: MIC90
  MIC90: 0.25 µg/mL (≈ 0.417 µM)
[5]; Streptococcus suis, S. suis, 9 clinical isolates, read-out: MIC Range
  MIC: 0.0625 to 2 µg/mL (≈ 0.104 to 3.34 µM)
[6]
  MIC: 0.031 µg/mL (≈ 0.0517 µM)

Reference: PMC6514978, “Synthesis, Antibacterial Activities, Mode of Action and Acute Toxicity Studies of New Oxazolidinone-Fluoroquinolone Hybrids” (Molecules, 2019)
